Results as given in article PMC4814829, “Design, synthesis, crystallization and biological evaluation of new symmetrical biscationic compounds as selective inhibitors of human Choline Kinase α1 (ChoKα1)” (Scientific Reports, 2016).
Read-outs that look alike come from different tables or passages of the source.

What was measured:
purified human ChoKα1 = purified human ChoKα1 (Homo sapiens, UniProt P35790); assay: Determination of human choline kinase α1 activity ([methyl-14C]choline incorporation into phosphocholine); type: biochemical
Chain of purified human ChoKα1 (P35790 whole entry): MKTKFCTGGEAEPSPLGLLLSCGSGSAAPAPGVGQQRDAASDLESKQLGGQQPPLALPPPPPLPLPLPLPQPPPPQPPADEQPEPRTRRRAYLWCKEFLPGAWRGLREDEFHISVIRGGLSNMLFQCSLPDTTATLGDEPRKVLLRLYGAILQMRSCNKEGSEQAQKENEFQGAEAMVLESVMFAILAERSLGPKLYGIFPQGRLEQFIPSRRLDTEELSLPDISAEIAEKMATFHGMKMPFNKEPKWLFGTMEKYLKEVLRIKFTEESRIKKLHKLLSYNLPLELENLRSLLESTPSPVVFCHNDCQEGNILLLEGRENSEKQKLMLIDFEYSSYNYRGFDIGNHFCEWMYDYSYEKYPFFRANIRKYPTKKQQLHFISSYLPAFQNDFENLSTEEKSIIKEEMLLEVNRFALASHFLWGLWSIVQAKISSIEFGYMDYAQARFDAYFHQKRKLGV
Method: The effect of the different inhibitors on human choline kinase (ChoK) was assayed in ChoKα1 purified as previously described[32]. In each experiment DMSO-assays were always run in parallel as a control. DMSO in no case exceeded a concentration of 0.1% in order to avoid unspecific ChoK inhibition. ChoK activity was assayed by measuring the rate of incorporation of ^14C from [methyl-^14C]choline into phosphocholine both in the presence or absence of different inhibitor concentrations. Briefly, the final reaction mixture contained 100 mM Tris (pH 8.5), 10 mM MgCl2, and 10 mM ATP, and 20 ng of purified ChoKα1. […] The assay was stopped by immersing the reaction tubes in boiling water for 3 min. Aliquots of the reaction mixture were applied to the origin of Silica Gel plates in the presence of phosphocholine (0.1 mg) and choline (0.1 mg) as carriers. The chromatography was developed in methanol/0.6% NaCl/28% NH4OH in water (50:50:5, v/v/v) as solvent. Phosphocholine was visualized under exposure to iodine vapor and the corresponding spot was scraped and transferred to scintillation vials for measurement of radioactivity by a Beckman 6000-TA (Madrid, Spain) liquid-scintillation counter. At least three experiments were performed in all assays.

HL-60 cells = assay: Antiproliferative MTT assay; type: cell-based; conditions: Homo sapiens, 72 h, mean ± SEM
Method: (§1) Human T-cell leukemia (Jurkat), human B-cell leukemia (RS 4,11) and human promyelocytic leukemia (HL-60) cells were grown in RPMI-1640 medium (Gibco, Milan, Italy). Breast adenocarcinoma (MCF-7 and MDA-MB-231), human non-small cell lung carcinoma (A549), human cervix carcinoma (HeLa), human prostate adenocarcinoma (PC-3), and human colon adenocarcinoma (HT-29) cells were grown in DMEM medium (Gibco, Milan, Italy). Both media were supplemented with 115 units/mL of penicillin G (Gibco, Milan, Italy), 115 μg/mL of streptomycin (Invitrogen, Milan, Italy) and 10% fetal bovine serum (Invitrogen, Milan, Italy). Stock solutions (10 mM) of the different compounds were obtained by dissolving them in DMSO. Individual wells of 96-well tissue-culture microtiter plates were inoculated with 100 μL of complete medium containing 8 × 10^3 cells. The plates were incubated at 37 °C in a humidified 5% CO2 incubator for 18 h prior to the experiments. After medium removal, 100 μL of fresh medium containing the test compound at different concentrations was added to each well and incubated at 37 °C for 72 h. The percentage of DMSO in the medium in no case exceeded 0.25%.

A549 cells = assay: Antiproliferative MTT assay; type: cell-based; conditions: Homo sapiens, 72 h, mean ± SEM
Method: as §1

RS4,11 cells = assay: Antiproliferative MTT assay; type: cell-based; conditions: Homo sapiens, 72 h, mean ± SEM
Method: as §1

MDA-MB-231 cells = assay: Antiproliferative MTT assay; type: cell-based; conditions: Homo sapiens, 72 h, mean ± SEM
Method: as §1

HT-29 cells = assay: Antiproliferative MTT assay; type: cell-based; conditions: Homo sapiens, 72 h, mean ± SEM
Method: as §1

Jurkat cells = assay: Antiproliferative MTT assay; type: cell-based; conditions: Homo sapiens, 72 h, mean ± SEM
Method: as §1

MCF-7 cells = assay: Antiproliferative MTT assay; type: cell-based; conditions: Homo sapiens, MCF7, 72 h, mean ± SEM
Method: as §1

PC-3 cells = assay: Antiproliferative MTT assay; type: cell-based; conditions: Homo sapiens, 72 h, mean ± SEM
Method: as §1

HeLa cells = assay: Antiproliferative MTT assay; type: cell-based; conditions: Homo sapiens, 72 h, mean ± SEM
Method: as §1

Human fibroblasts = assay: Antiproliferative assay in non-tumoral cells; type: cell-based; conditions: Fibroblast, mean ± SEM
Description: Human fibroblasts from foreskin were isolated as previously described[58] and maintained in DMEM medium with 10% fetal bovine serum added.

human ChoKα1 = biological target: T1, human ChoKα1 (Homo sapiens, UniProt P35790); assay: Tryptophan fluorescence quenching; type: binding; conditions: mean ± S.D. of at least three independent experiments; 25 °C, enzyme 1 μM; read-out: HsChoKα1 Kd
T1 construct: made in house
T1 sequence (P35790 whole entry): as above
Method: All compounds were prepared in 100% DMSO. Their Kds against human ChoKα1 were measured by monitoring the quenching of tryptophan fluorescence. All experiments were performed in a Cary Eclipse spectrofluorometer (Varian) at 25 °C with the enzymes at 1 μM, and concentrations of compounds varying from 0.1 to 5 μM for ChoKα1 in 25 mM Tris, 150 mM NaCl, pH 7.5. Fluorescence emission spectra were recorded in the 300–400 nm range with an excitation wavelength of 280 nm, with slit width of 5 nm. Controls were determined by incubating the enzymes with equivalent amounts of DMSO. As indicated previously, data analysis was performed in Prism (GraphPad software) considering a model with a single binding site (Eq. 1), where F0 is the intrinsic fluorescence of the enzyme in the absence of quencher (Q), F1 is the observed fluorescence at a given quencher concentration, fa is the fractional degree of fluorescence, and Kd is the dissociation constant.

PBL (+Pha) = assay: Antiproliferative assay in non-tumoral cells (MTT); type: cell-based; conditions: Homo sapiens, non-tumoral cells stimulated with phytohematoagglutinin, 72 h, mean ± SEM
Method: (§2) Peripheral mononuclear cells (PBMC) from healthy donors were obtained by separation on Lymphoprep (Fresenius KABI Norge AS) gradient. After extensive washing, cells were resuspended (1 × 10^6 cells/mL) in RPMI-1640 with 10% fetal bovine serum and incubated overnight. For cytotoxicity evaluations in proliferating PBL cultures, non-adherent cells were resuspended at 5 × 10^5 cells/mL in growth medium, containing 2.5 μg/mL PHA (Irvine Scientific). Different concentrations of the test compounds were added, and viability was determined 72 h later by the MTT test. For cytotoxicity evaluations in resting PBL cultures, non-adherent cells were resuspended (5 × 10^5 cells/mL) and treated for 72 h with the test compounds, as described above.

PBL (resting) = assay: Antiproliferative assay in non-tumoral cells (MTT); type: cell-based; conditions: Homo sapiens, 72 h, mean ± SEM
Method: as §2

[1] = test system: panel of nine different human tumor-cell lines; assay: Antiproliferative activity against the panel of nine human tumor-cell lines; type: cell-based; conditions: for GI50: Homo sapiens, range or bound over all tested cell lines, read-out: GI50 across the tumor-cell line panel
Method: as §1

[2] = mean ± SEM, three independent experiments, read-out: IC50 ChoKα1 purified

CN(c1ccc(Cl)cc1)c1cc[n+](Cc2ccc(OCCOc3ccc(C[n+]4ccc(N(C)c5ccc(Cl)cc5)c5ccc(Cl)cc54)cc3)cc2)c2cc(Cl)ccc12 [Compound 10i, 1,1′-(((ethane-1,2-diylbis(oxy))bis(4,1-phenylene))bis(methylene))bis(7-chloro-4-((4-chlorophenyl)(methyl)amino)quinolinium) bromide]
IC50 (purified human ChoKα1; [2]): 16.2 ± 0.44 µM
GI50 (HL-60 cells): 0.87 ± 0.28 µM
GI50 (A549 cells): 0.29 ± 0.1 µM
GI50 (RS4,11 cells): 0.5 ± 0.09 µM
GI50 (MDA-MB-231 cells): 0.15 ± 0.05 µM
GI50 (HT-29 cells): 1 ± 0.15 µM
GI50 (Jurkat cells): 0.76 ± 0.26 µM
GI50 (MCF-7 cells): 0.66 ± 0.07 µM
GI50 (PC-3 cells): 0.72 ± 0.09 µM
GI50 (HeLa cells): 1.5 ± 0.73 µM

Clc1ccc2c(N3CCCCCC3)cc[n+](Cc3ccc(OCCOc4ccc(C[n+]5ccc(N6CCCCCC6)c6ccc(Cl)cc65)cc4)cc3)c2c1 [Compound 10k, 1,1′-(((ethane-1,2-diylbis(oxy))bis(4,1-phenylene))bis(methylene))bis(4-(azepan-1-yl)-7-chloroquinolinium) bromide]
GI50 (Human fibroblasts): 3.2 ± 0.86 µM
IC50 (purified human ChoKα1; [2]): 2.02 ± 0.08 µM
GI50 (HL-60 cells): 0.18 ± 0.06 µM
GI50 (A549 cells): 0.52 ± 0.02 µM
GI50 (RS4,11 cells): 0.036 ± 0.008 µM
GI50 (MDA-MB-231 cells): 0.061 ± 0.003 µM
GI50 (HT-29 cells): 0.27 ± 0.05 µM
GI50 (Jurkat cells): 0.072 ± 0.013 µM
GI50 (MCF-7 cells): 0.28 ± 0.09 µM
GI50 (PC-3 cells): 0.11 ± 0.028 µM
GI50 (HeLa cells): 0.26 ± 0.074 µM
Kd (human ChoKα1): 0.241 ± 0.03 µM
GI50 (PBL (+Pha)): 0.034 ± 0.007 µM
GI50 (PBL (resting)): 2.1 ± 0.8 µM

CN(C)c1cc[n+](Cc2ccc(CCCCc3ccc(C[n+]4ccc(N(C)c5ccc(Cl)cc5)cc4)cc3)cc2)cc1 [Compound 4, reference compound]
Kd (human ChoKα1): 0.11 ± 0.01 µM

c1ccc2c(c1)c(N1CCCCCC1)cc[n+]2Cc1ccc(OCCOc2ccc(C[n+]3ccc(N4CCCCCC4)c4ccccc43)cc2)cc1 [Compound 10j, 1,1′-(((ethane-1,2-diylbis(oxy))bis(4,1-phenylene))bis(methylene))bis(4-(azepan-1-yl)quinolinium) bromide]
GI50 (Human fibroblasts): 14.3 ± 1.2 µM
IC50 (purified human ChoKα1; [2]): 1.66 ± 0.09 µM
GI50 (HL-60 cells): 0.42 ± 0.22 µM
GI50 (A549 cells): 0.3 ± 0.068 µM
GI50 (RS4,11 cells): 0.16 ± 0.012 µM
GI50 (MDA-MB-231 cells): 0.01 ± 0.005 µM
GI50 (HT-29 cells): 0.15 ± 0.08 µM
GI50 (Jurkat cells): 0.11 ± 0.026 µM
GI50 (MCF-7 cells): 0.11 ± 0.047 µM
GI50 (PC-3 cells): 0.09 ± 0.04 µM
GI50 (HeLa cells): 0.17 ± 0.084 µM
GI50 (PBL (+Pha)): 0.095 ± 0.021 µM
GI50 (PBL (resting)): 2 ± 0.24 µM

OC1C[N+]2(Cc3ccc(OCCOc4ccc(C[N+]56CCC(CC5)C(O)C6)cc4)cc3)CCC1CC2.[Br-].[Br-] (stereo not drawn) [Compound 10e, 1,1′-(((ethane-1,2-diylbis(oxy))bis(4,1-phenylene))bis(methylene))bis(3-hydroxyquinuclidinium) bromide]
GI50 [1]: > 10 µM
Antiproliferative activity in all cell lines (in words) [1]: total loss of activity
IC50 (purified human ChoKα1): 9.51 ± 1.14 µM
GI50 (HL-60 cells): > 100 µM
GI50 (A549 cells): > 100 µM
GI50 (RS4,11 cells): 66 ± 6.6 µM
GI50 (MDA-MB-231 cells): 63.2 ± 3.9 µM
GI50 (HT-29 cells): 94 ± 4.2 µM
GI50 (Jurkat cells): > 100 µM
GI50 (MCF-7 cells): 50.9 ± 11.7 µM
GI50 (PC-3 cells): 48 ± 1.1 µM
GI50 (HeLa cells): > 100 µM

[Br-].[Br-].c1cc(OCCOc2ccc(C[N+]34CCC(CC3)CC4)cc2)ccc1C[N+]12CCC(CC1)CC2 [Compound 10d, 1,1′-(((ethane-1,2-diylbis(oxy))bis(4,1-phenylene))bis(methylene))bis(quinuclidinium) bromide]
GI50 [1]: > 10 µM
Antiproliferative activity in all cell lines (in words) [1]: total loss of activity
IC50 (purified human ChoKα1): 37.5 ± 4.45 µM
GI50 (HL-60 cells): 84.1 ± 7.4 µM
GI50 (A549 cells): 61.3 ± 16.7 µM
GI50 (RS4,11 cells): 37.5 ± 4.2 µM
GI50 (MDA-MB-231 cells): 74.3 ± 2.6 µM
GI50 (HT-29 cells): > 100 µM
GI50 (Jurkat cells): > 100 µM
GI50 (MCF-7 cells): 91.4 ± 7.6 µM
GI50 (PC-3 cells): 94.3 ± 12.4 µM
GI50 (HeLa cells): 16.9 ± 2.5 µM

CN(c1ccccc1)c1cc[n+](Cc2ccc(OCCOc3ccc(C[n+]4ccc(N(C)c5ccccc5)c5ccccc54)cc3)cc2)c2ccccc12 [Compound 10f, 1,1′-(((ethane-1,2-diylbis(oxy))bis(4,1-phenylene))bis(methylene))bis(4-(methyl(phenyl)amino)quinolinium) bromide]
GI50 (Human fibroblasts): 9.8 ± 2.5 µM
IC50 (purified human ChoKα1; [2]): 6.85 ± 0.81 µM
GI50 (HL-60 cells): 0.063 ± 0.013 µM
GI50 (A549 cells): 0.21 ± 0.06 µM
GI50 (RS4,11 cells): 0.24 ± 0.05 µM
GI50 (MDA-MB-231 cells): 0.001 ± 0.001 µM
GI50 (HT-29 cells): 0.12 ± 0.017 µM
GI50 (Jurkat cells): 0.06 ± 0.002 µM
GI50 (MCF-7 cells): 0.17 ± 0.065 µM
GI50 (PC-3 cells): 0.47 ± 0.12 µM
GI50 (HeLa cells): 0.15 ± 0.031 µM
Kd (human ChoKα1): 0.295 ± 0.127 µM
GI50 (PBL (+Pha)): 0.1 ± 0.03 µM
GI50 (PBL (resting)): 1.4 ± 0.6 µM

c1cc(OCCOc2ccc(C[n+]3ccc(N4CCCC4)cc3)cc2)ccc1C[n+]1ccc(N2CCCC2)cc1 [Compound 10b, 1,1′-(((ethane-1,2-diylbis(oxy))bis(4,1-phenylene))bis(methylene))bis(4-(pyrrolidin-1-yl)pyridinium) bromide]
GI50 [1]: 0.042 to 4.5 µM
GI50 (Human fibroblasts): 30.5 ± 9.6 µM
IC50 (purified human ChoKα1; [2]): 9.56 ± 1.45 µM
GI50 (HL-60 cells): 0.042 ± 0.005 µM
GI50 (A549 cells): 2.3 ± 1.1 µM
GI50 (RS4,11 cells): 1.12 ± 0.22 µM
GI50 (MDA-MB-231 cells): 0.09 ± 0.02 µM
GI50 (HT-29 cells): 4.3 ± 0.42 µM
GI50 (Jurkat cells): 0.068 ± 0.016 µM
GI50 (MCF-7 cells): 0.17 ± 0.032 µM
GI50 (PC-3 cells): 4.5 ± 1.1 µM
GI50 (HeLa cells): 0.082 ± 0.041 µM
GI50 (PBL (+Pha)): 1.88 ± 0.71 µM
GI50 (PBL (resting)): 34.8 ± 15.6 µM

C[N+]1(C)CCOC(O)(c2ccc(-c3ccc(C4(O)C[N+](C)(C)CCO4)cc3)cc2)C1 (stereo not drawn) [HC-3, reference compound]
Kd (human ChoKα1): 0.18 ± 0.03 µM

CN(c1ccc(Cl)cc1)c1cc[n+](Cc2ccc(OCCOc3ccc(C[n+]4ccc(N(C)c5ccc(Cl)cc5)cc4)cc3)cc2)cc1 [Compound 10c, 1,1′-(((ethane-1,2-diylbis(oxy))bis(4,1-phenylene))bis(methylene))bis(4-((4-chlorophenyl)(methyl)amino)pyridinium) bromide]
GI50 [1]: 2.1 to 7.3 µM
IC50 (purified human ChoKα1; [2]): 1.63 ± 0.14 µM
GI50 (HL-60 cells): 2.1 ± 0.6 µM
GI50 (A549 cells): 4.9 ± 0.7 µM
GI50 (RS4,11 cells): 2.7 ± 0.13 µM
GI50 (MDA-MB-231 cells): 2.2 ± 0.27 µM
GI50 (HT-29 cells): 4.3 ± 1.1 µM
GI50 (Jurkat cells): 7.3 ± 0.5 µM
GI50 (MCF-7 cells): 3.5 ± 0.72 µM
GI50 (PC-3 cells): 3.1 ± 0.7 µM
GI50 (HeLa cells): 5.6 ± 0.25 µM
